# Experimental data taken from US5602101A, “Antithrombotic agents” (priority 1994, dated 1997).
# Like-named read-outs stand apart in the source and are kept apart here. Non-standard residues stand in square brackets, D forms with d. Residues, ends and D or L forms follow the SMILES beside them. dNMeCha = CN[C@H](CC1CCCCC1)C(=O)O; dCha = N[C@H](CC1CCCCC1)C(=O)O
# Tests used:
# [1] = biological target: T1, human thrombin (Homo sapiens, UniProt P00734); assay: Inhibition of amidase activity of thrombin (chromogenic substrate), Kass; assay type: biochemical; conditions: substrate N-benzoyl-Phe-Val-Arg-p-nitroanilide, pH 7.4
# T1 construct: purified human thrombin Enzyme Research Laboratories, South Bend, Ind; purchased Enzyme Research Laboratories, South Bend, Ind
# Summary of the method: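 Human thrombin (8 NIH units/ml solution) with compound in 0.03M Tris, 0.15M NaCl, pH 7.4; chromogenic substrate hydrolysis followed at 405 nm. Free thrombin from standard curves gives bound enzyme and free inhibitor; Kass, an association equilibrium constant in L/mol, averaged over a compound concentration range.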
# [2] = biological target: T2, factor Xa (Homo sapiens, UniProt P00742); assay: Serine protease inhibition, factor Xa (chromogenic substrate), Kass; assay type: biochemical; conditions: substrate N-Benzoyl-Ile-Glu-Gly-Arg-p-nitroanilide
# T2 construct: Human factors X, Xa, IXa, XIa, and xIIa are purchased from Enzyme Research Laboratories; purchased Enzyme Research Laboratories, South Bend, Ind
# T2 sequence (P00742 235-488 limits assumed): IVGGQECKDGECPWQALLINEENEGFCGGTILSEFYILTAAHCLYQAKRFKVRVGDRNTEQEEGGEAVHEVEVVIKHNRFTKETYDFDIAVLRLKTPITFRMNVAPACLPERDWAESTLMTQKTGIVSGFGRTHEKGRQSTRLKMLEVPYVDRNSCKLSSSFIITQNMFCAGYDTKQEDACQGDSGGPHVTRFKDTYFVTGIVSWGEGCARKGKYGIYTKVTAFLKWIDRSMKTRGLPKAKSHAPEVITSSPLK
# T2 sequence (P00742 41-179 partner limits assumed): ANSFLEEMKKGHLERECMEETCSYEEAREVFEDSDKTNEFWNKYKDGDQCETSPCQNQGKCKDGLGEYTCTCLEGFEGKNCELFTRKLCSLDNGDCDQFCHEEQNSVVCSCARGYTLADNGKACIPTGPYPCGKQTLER
# Summary of the method: (§1)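 Enzyme mixed with test compound in 0.03M Tris, 0.15M NaCl, pH 7.4, then p-nitroanilide substrate added (Bz-Ile-Glu-Gly-Arg-pNA for factor Xa; Bz-Phe-Val-Arg-pNA for trypsin; H-D-Ile-Pro-Arg-pNA for t-PA; H-D-Val-Leu-Lys-pNA for plasmin); hydrolysis followed at 405 nm. Free enzyme from standard curves gave bound enzyme and free inhibitor; Kass (L/mol) averaged over several compound concentrations.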
# [3] = biological target: T3, Bovine trypsin (Bos taurus, UniProt P00760); assay: Serine protease inhibition, trypsin (chromogenic substrate), Kass; assay type: biochemical; conditions: substrate N-Benzoyl-Phe-Val-Arg-p-nitroanilide
# T3 construct: Bovine trypsin is purchased from Worthington Biochemicals, Freehold, N.J; purchased Worthington Biochemicals, Freehold, N.J
# T3 sequence (P00760 24-246): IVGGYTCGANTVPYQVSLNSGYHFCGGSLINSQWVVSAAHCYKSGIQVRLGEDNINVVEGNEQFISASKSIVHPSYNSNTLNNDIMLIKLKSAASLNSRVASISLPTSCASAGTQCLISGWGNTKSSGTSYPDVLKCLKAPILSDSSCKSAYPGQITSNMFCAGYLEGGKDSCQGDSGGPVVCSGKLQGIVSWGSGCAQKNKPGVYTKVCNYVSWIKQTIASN
# Summary of the method: as §1
# [4] = biological target: T4, Human plasmin (Homo sapiens, UniProt P00747); assay: Serine protease inhibition, plasmin (chromogenic substrate), Kass; assay type: biochemical; conditions: substrate H-D-Val-Leu-Lys-p-nitroanilide
# T4 construct: Human plasmin is purchased from Boehringer Mannheim, Indianapolis, Ind; purchased Boehringer Mannheim, Indianapolis, Ind
# T4 sequence (P00747 581-810 limits assumed): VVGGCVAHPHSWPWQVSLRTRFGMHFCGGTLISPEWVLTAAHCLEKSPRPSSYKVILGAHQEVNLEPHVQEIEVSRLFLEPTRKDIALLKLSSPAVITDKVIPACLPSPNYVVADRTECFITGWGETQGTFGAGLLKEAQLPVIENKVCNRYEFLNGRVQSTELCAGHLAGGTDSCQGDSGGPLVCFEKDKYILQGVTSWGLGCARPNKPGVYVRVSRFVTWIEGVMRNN
# T4 sequence (P00747 97-580 partner limits assumed): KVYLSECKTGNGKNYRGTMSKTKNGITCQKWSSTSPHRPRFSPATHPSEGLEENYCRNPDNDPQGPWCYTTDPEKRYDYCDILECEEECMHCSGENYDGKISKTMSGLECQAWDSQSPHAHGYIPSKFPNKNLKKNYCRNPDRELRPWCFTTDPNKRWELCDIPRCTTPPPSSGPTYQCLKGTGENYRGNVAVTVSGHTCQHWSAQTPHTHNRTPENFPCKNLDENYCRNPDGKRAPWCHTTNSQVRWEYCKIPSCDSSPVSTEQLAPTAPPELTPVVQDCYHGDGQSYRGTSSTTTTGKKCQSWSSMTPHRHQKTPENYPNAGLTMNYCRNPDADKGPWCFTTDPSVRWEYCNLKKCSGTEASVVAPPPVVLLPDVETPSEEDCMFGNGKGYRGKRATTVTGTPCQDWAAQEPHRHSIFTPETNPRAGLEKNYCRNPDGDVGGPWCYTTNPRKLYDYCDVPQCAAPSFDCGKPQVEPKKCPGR
# Summary of the method: as §1
# [5] = biological target: T5, tissue plasminogen activator (t-PA) (Homo sapiens, UniProt P00750); assay: Serine protease inhibition, t-PA (chromogenic substrate), Kass; assay type: biochemical; conditions: substrate H-D-Ile-Pro-Arg-p-nitroanilide
# T5 construct: purchased American Diagnostics, Greenwich, Conn
# T5 sequence (P00750 36-562): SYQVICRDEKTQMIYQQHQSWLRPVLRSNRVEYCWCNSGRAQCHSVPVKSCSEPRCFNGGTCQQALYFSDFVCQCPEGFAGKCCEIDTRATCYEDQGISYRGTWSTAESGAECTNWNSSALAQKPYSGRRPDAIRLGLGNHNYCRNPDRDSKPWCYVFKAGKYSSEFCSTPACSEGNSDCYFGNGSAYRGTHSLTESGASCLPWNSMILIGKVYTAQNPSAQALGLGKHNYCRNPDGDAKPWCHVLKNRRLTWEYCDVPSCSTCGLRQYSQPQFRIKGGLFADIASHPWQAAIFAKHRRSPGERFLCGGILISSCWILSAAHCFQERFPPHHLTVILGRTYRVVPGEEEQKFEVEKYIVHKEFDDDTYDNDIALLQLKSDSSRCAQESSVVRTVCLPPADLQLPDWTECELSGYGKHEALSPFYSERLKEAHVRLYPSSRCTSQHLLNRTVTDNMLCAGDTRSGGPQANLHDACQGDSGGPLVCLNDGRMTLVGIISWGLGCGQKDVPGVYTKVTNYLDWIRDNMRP
# Summary of the method: as §1
# [6] = system: Human Plasma; assay: Anticoagulation in human plasma, thrombin time (TT); assay type: biochemical; conditions: concentration required to double the thrombin time
# Summary of the method: (§2)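 Compounds were added to human plasma over a range of concentrations. PT used Thromboplastin-C reagent with saline; APTT used a 120-second Actin preincubation followed by 0.02M CaCl2, and TT used bovine thrombin. Clotting times were read on a CoAScreener, and the concentration doubling clotting time was estimated by linear extrapolation.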
# [7] = system: Human Plasma; assay: Anticoagulation in human plasma, activated partial thromboplastin time (APTT); assay type: biochemical; conditions: concentration required to double the APTT
# Summary of the method: as §2
# [8] = system: Human Plasma; assay: Anticoagulation in human plasma, prothrombin time (PT); assay type: biochemical; conditions: concentration required to double the PT
# Summary of the method: as §2
# [9] = rat, in vivo
# [10] = Index of bioavailability (plasma TT AUC, p.o. vs i.v.); conditions: rats, adjusted for dose
Compound,"Enzyme Kass, Human Thrombin [1] [L/mol × 10^6]","Enzyme Kass, Xa [2] [L/mol × 10^6]","Enzyme Kass, Trypsin [3] [L/mol × 10^6]","Enzyme Kass, Plasmin [4] [L/mol × 10^6]","Enzyme Kass, t-Pa [5] [L/mol × 10^6]","Index of Bioavailability, % Relative Activity [9] [%]","2 × Clotting time, TT [6] [ng/mL]","2 × Clotting time, APTT [7]","2 × Clotting time, PT [8]","Index of Bioavailability, % Relative Activity [10] [%]"
"CC(=O)N[C@H](CC1CCCCC1)C(=O)N1CCC[C@H]1C(=O)N[C@H](C=O)CCCNC(=N)N.Cl [Example 28, Ac-D-Cha-Pro-Arg-H.HCl] (Ac-[dCha]-Pro-Arg-aldehyde)",26,1.1,12,0.61,0.035,9,92,"1,900 ng/ML","3,500 ng/ML",
"CCS(=O)(=O)N[C@H](Cc1ccccc1)C(=O)N1CCC[C@H]1C(=O)N[C@H](C=O)CCCNC(=N)N.Cl [Example 8, EtSO2 -D-Phe-Pro-Arg-H-HCl]",450,2.6,260,31,2.9,,9,260 ng/mL,660 ng/mL,31
"Cl.N=C(N)NCCC[C@@H](C=O)NC(=O)[C@@H]1CCCN1C(=O)[C@@H](Cc1ccccc1)NCC1CCCCC1 [Example 30, cyclohexyl-CH2 -D-phe-pro-Arg-H.HCl]",480,0.11,69,0.49,0.046,,16,860 ng/mL,"1,200 ng/ML",1

# Continued, in another order:
"Enzyme Kass, Human Thrombin [1] [L/mol × 10^6]","Enzyme Kass, Xa [2] [L/mol × 10^6]","Enzyme Kass, Trypsin [3] [L/mol × 10^6]","Enzyme Kass, Plasmin [4] [L/mol × 10^6]","Enzyme Kass, t-Pa [5] [L/mol × 10^6]","Index of Bioavailability, % Relative Activity [9] [%]",Compound,"2 × Clotting time, TT [6] [ng/mL]","2 × Clotting time, APTT [7]","2 × Clotting time, PT [8]","Index of Bioavailability, % Relative Activity [10] [%]"
550,20,200,45,0.73,19,"CCS(=O)(=O)N[C@H](CC1CCCCC1)C(=O)N1CCC[C@H]1C(=O)N[C@H](C=O)CCCNC(=N)N.Cl [Example 21, EtSO2 -D-Cha-Pro-Arg-H.HCl]",25,260 ng/mL,730 ng/mL,
590,5.6,160,7.7,0.037,13,"CN[C@H](CC1CCCCC1)C(=O)N1CCC[C@H]1C(=O)N[C@H](C=O)CCCNC(=N)N.Cl [Example 31, Me-D-Cha-Pro-Arg-H.HCl] (H-[dNMeCha]-Pro-Arg-aldehyde)",18,420 ng/mL,720 ng/mL,
